Holding throughout (assay type): biochemical
One test addresses CDK4/CCND3 (Homo sapiens, UniProt P11802). As to the kind of experiment: CDK4 homogeneous time-resolved fluorescence (HTRF) kinase assay. The settings on record: CDK4/CCND. An outline of the steps: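 IC50s derive from Lance 665 nm or 665/615 nm signals in 11-point, half-log dose series (top 10 μM, 1% DMSO). The enzyme, 1.5 nM CDK4/CCND3, phosphorylates 50 nM ULight-4E-BP1 peptide with 1 mM ATP over 60 min at 23 °C.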
For orientation: Time-resolved FRET reads energy transfer from a long-lived donor to a nearby acceptor.

The next test has as its target CDK6/CCND1 (Homo sapiens, UniProt Q00534). As to the kind of experiment: CDK6 homogeneous time-resolved fluorescence (HTRF) kinase assay. Conditions: CDK6/CCND, 1 mM ATP. An outline of the steps:
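Assay conditions: HEPES buffer containing 10 mM MgCl2, 1 mM EGTA, 2 mM DTT, 0.01% Tween 20; 1 nM CDK6/CCND1, 50 nM peptide substrate, 1 mM ATP. Detection after 60 min reaction used 2 nM europium antibody with 340 nm excitation. Potency fitted from half-log series, 11 points.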

For another test, the target named is CDK1/CCNB1 (Homo sapiens, UniProt P06493). Kind of test: CDK1 homogeneous time-resolved fluorescence (HTRF) kinase assay. Conditions: CDK1/CCNB. An outline of the steps: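 Kinase activity is measured as Lance signal (665 nm, or 665/615 nm ratio) from europium-labelled anti-phospho-Thr37/46 antibody binding ULight-4E-BP1 peptide. Reactions contain 0.5 nM enzyme, 1 mM ATP, 1% DMSO and run 60 min at 23 °C before EDTA quench.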
CDK1/CCNB1, sequence (P06493 whole entry): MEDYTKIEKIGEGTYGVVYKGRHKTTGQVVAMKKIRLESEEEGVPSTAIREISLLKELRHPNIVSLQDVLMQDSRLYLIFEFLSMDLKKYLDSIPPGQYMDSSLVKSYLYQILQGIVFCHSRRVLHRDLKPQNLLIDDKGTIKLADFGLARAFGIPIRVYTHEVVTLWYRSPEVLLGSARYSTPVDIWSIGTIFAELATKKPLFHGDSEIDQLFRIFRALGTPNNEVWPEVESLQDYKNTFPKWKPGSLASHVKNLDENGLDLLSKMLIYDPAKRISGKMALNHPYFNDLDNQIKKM
CDK1/CCNB1, sequence (P14635 whole entry partner): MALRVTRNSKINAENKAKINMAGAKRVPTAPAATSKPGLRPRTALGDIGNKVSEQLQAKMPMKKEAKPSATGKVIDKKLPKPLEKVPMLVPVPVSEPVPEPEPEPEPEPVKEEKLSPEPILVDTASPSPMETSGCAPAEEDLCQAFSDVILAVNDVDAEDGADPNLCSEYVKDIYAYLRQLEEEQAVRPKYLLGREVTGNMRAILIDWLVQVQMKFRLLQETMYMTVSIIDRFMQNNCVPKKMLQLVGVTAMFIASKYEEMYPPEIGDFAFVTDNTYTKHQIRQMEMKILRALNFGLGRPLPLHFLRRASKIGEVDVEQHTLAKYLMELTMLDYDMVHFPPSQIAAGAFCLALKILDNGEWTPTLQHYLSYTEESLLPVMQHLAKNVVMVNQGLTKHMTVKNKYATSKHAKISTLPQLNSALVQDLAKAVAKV

Another test concerns the target CDK2/CCNE1 (Homo sapiens, UniProt P24941). As to the kind of experiment: CDK2 homogeneous time-resolved fluorescence (HTRF) kinase assay. The settings on record: CDK2/CCNE. An outline of the steps: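 An HTRF format measures CDK2/CCNE1 (3 nM) phosphorylating a 4E-BP1 Thr37/46 peptide at high (1 mM) ATP. Reactions run one hour at 23 °C, then EDTA-quenched and probed with Eu-labelled phospho-specific antibody.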

The mark [1] stands for this setting: 25-250 nM, read-out: CDK4/CCND IC50, 25-250 nM.
The mark [2] stands for this setting: 25-250 nM, read-out: CDK6/CCND IC50, 25-250 nM.
The mark [3] stands for this setting: >250 nM, read-out: CDK1/CCNB IC50 >250 nM.
Setting [4] is: <25 nM, read-out: CDK2/CCNE IC50, <25 nM.
Where [5] appears, read: >250 nM, read-out: CDK4/CCND IC50, >250 nM.
[6] abbreviates: >250 nM, read-out: CDK6/CCND IC50, >250 nM.
The mark [7] stands for this setting: 25-250 nM, read-out: CDK2/CCNE IC50, 25-250 nM.

Each structure is given as a SMILES string. pIC50: −log10 of the molar value. Like-named read-outs stand apart in the source and are kept apart here.

CDK4/CCND3, sequence (P11802 whole entry): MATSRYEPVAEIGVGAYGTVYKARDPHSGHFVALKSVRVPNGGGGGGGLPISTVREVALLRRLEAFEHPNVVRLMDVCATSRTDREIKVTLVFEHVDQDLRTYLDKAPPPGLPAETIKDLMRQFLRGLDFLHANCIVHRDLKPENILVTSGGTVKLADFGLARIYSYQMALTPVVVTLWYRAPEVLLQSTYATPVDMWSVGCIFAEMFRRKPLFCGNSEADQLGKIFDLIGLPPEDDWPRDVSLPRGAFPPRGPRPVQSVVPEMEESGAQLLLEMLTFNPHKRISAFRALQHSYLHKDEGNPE
CDK4/CCND3, sequence (P30281 whole entry partner): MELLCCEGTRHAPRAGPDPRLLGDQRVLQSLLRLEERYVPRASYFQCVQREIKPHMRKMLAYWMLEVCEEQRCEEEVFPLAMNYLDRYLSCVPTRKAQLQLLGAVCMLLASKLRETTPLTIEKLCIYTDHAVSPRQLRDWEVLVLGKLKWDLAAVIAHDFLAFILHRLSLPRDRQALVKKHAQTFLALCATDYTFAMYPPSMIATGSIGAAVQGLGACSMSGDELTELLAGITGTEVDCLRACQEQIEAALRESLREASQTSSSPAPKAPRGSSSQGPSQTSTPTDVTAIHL
CDK6/CCND1, sequence (Q00534 whole entry): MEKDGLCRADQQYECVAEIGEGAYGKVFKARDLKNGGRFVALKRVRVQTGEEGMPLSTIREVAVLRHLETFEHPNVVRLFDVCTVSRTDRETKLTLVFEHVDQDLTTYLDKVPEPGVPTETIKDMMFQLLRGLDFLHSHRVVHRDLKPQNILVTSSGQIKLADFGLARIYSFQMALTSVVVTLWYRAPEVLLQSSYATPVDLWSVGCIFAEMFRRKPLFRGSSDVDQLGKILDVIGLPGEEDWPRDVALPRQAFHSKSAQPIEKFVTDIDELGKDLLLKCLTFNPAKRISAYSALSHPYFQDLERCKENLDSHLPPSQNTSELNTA
CDK6/CCND1, sequence (P24385 whole entry partner): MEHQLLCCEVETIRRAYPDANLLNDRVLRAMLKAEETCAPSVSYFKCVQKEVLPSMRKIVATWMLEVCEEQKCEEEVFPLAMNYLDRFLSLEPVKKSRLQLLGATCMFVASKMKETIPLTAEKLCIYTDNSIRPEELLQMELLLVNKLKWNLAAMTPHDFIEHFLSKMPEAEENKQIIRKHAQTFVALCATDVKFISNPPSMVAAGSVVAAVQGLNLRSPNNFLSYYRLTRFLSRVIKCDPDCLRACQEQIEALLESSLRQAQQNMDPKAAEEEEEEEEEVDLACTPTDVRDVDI

For the compound `Cc1c(-c2nccc3cnc(Nc4ccc(S(=O)(=O)Nc5cc(C(C)(C)O)ccn5)cc4)cc23)ccc2c1cnn2CC(C)(C)O` [Ex 774, 4-((5-(1-(2-hydroxy-2-methylpropyl)-4-methyl-1H-indazol-5-yl)-2,6-naphthyridin-3-yl)amino)-N-(4-(2-hydroxypropan-2-yl)pyridin-2-yl)benzenesulfonamide], the pIC50 at CDK4/CCND3 (setting [1]) was 6.60 to 7.60; at CDK6/CCND1 (setting [2]), 6.60 to 7.60; at CDK1/CCNB1 (setting [3]) it was less than 6.60; at CDK2/CCNE1 (setting [4]), more than 7.60.

With `Cc1c(-c2nccc3cnc(Nc4ccc(S(=O)(=O)Nc5cc(C(F)(F)F)cc(C(F)(F)F)n5)cc4)cc23)ccc2c1cnn2CC(C)(C)O` [Ex 775, N-(4,6-bis(trifluoromethyl)pyridin-2-yl)-4-((5-(1-(2-hydroxy-2-methylpropyl)-4-methyl-1H-indazol-5-yl)-2,6-naphthyridin-3-yl)amino)benzenesulfonamide], the pIC50 on CDK4/CCND3 (setting [5]) is less than 6.60; on CDK6/CCND1 (setting [6]) it was less than 6.60; on CDK1/CCNB1 (setting [3]) it was less than 6.60; at CDK2/CCNE1 (setting [4]), more than 7.60.

Regarding `Cc1c(-c2nccc3cnc(Nc4ccc(NS(=O)(=O)c5ccc(Cl)cn5)cc4)cc23)ccc2c1cnn2CC(C)(C)O` [Ex 777, 5-chloro-N-(4-((5-(1-(2-hydroxy-2-methylpropyl)-4-methyl-1H-indazol-5-yl)-2,6-naphthyridin-3-yl)amino)phenyl)pyridine-2-sulfonamide], the pIC50 on CDK4/CCND3 (setting [5]) was less than 6.60; at CDK6/CCND1 (setting [6]) it was less than 6.60; on CDK1/CCNB1 (setting [3]), less than 6.60; at CDK2/CCNE1 (setting [4]), more than 7.60.

`Cc1c(-c2nccc3cnc(Nc4ccc(NS(=O)(=O)c5ccc(C(F)(F)F)nc5)cc4)cc23)ccc2c1cnn2CC(C)(C)O` [Ex 778, N-(4-((5-(1-(2-hydroxy-2-methylpropyl)-4-methyl-1H-indazol-5-yl)-2,6-naphthyridin-3-yl)amino)phenyl)-6-(trifluoromethyl)pyridine-3-sulfonamide]: the pIC50 at CDK4/CCND3 (setting [5]) was less than 6.60; on CDK6/CCND1 (setting [6]), less than 6.60; on CDK1/CCNB1 (setting [3]), less than 6.60; on CDK2/CCNE1 (setting [7]), 6.60 to 7.60.

As for `COc1ccc(S(=O)(=O)Nc2ccc(Nc3cc4c(-c5ccc6c(cnn6CC(C)(C)O)c5C)nccc4cn3)cc2)cn1` [Ex 779, N-(4-((5-(1-(2-hydroxy-2-methylpropyl)-4-methyl-1H-indazol-5-yl)-2,6-naphthyridin-3-yl)amino)phenyl)-6-methoxypyridine-3-sulfonamide], the pIC50 on CDK4/CCND3 (setting [5]) is less than 6.60; at CDK6/CCND1 (setting [6]) it was less than 6.60; on CDK1/CCNB1 (setting [3]), less than 6.60; on CDK2/CCNE1 (setting [4]), more than 7.60.

For the compound `Cc1c(-c2nccc3cnc(Nc4ccc(NS(=O)(=O)c5ccc(N6CCOCC6)nc5)cc4)cc23)ccc2c1cnn2CC(C)(C)O` [Ex 780, N-(4-((5-(1-(2-hydroxy-2-methylpropyl)-4-methyl-1H-indazol-5-yl)-2,6-naphthyridin-3-yl)amino)phenyl)-6-morpholinopyridine-3-sulfonamide], the pIC50 at CDK4/CCND3 (setting [5]) was less than 6.60; at CDK6/CCND1 (setting [6]) it was less than 6.60; at CDK1/CCNB1 (setting [3]) it was less than 6.60; at CDK2/CCNE1 (setting [7]) it was 6.60 to 7.60.

With `Cc1c(-c2nccc3cnc(Nc4ccc(NS(=O)(=O)c5cnccn5)cc4)cc23)ccc2c1cnn2CC(C)(C)O` [Ex 781, N-(4-((5-(1-(2-hydroxy-2-methylpropyl)-4-methyl-1H-indazol-5-yl)-2,6-naphthyridin-3-yl)amino)phenyl)pyrazine-2-sulfonamide], the pIC50 on CDK4/CCND3 (setting [1]) is 6.60 to 7.60; on CDK6/CCND1 (setting [2]), 6.60 to 7.60; at CDK1/CCNB1 (setting [3]), less than 6.60; at CDK2/CCNE1 (setting [4]), more than 7.60.

In the case of `Cc1nc(-c2ccc(S(=O)(=O)Nc3ccc(Nc4cc5c(-c6ccc7c(cnn7CC(C)(C)O)c6C)nccc5cn4)cc3)s2)cs1` [Ex 782, N-(4-((5-(1-(2-hydroxy-2-methylpropyl)-4-methyl-1H-indazol-5-yl)-2,6-naphthyridin-3-yl)amino)phenyl)-5-(2-methylthiazol-4-yl)thiophene-2-sulfonamide], the pIC50 at CDK4/CCND3 (setting [5]) is less than 6.60; on CDK6/CCND1 (setting [6]), less than 6.60; on CDK1/CCNB1 (setting [3]) it was less than 6.60; on CDK2/CCNE1 (>250 nM, read-out: CDK2/CCNE IC50, >250 nM) it was less than 6.60.

For `Cc1ncc(S(=O)(=O)Nc2ccc(Nc3cc4c(-c5ccc6c(cnn6CC(C)(C)O)c5C)nccc4cn3)cc2)s1` [Ex 783, N-(4-((5-(1-(2-hydroxy-2-methylpropyl)-4-methyl-1H-indazol-5-yl)-2,6-naphthyridin-3-yl)amino)phenyl)-2-methylthiazole-5-sulfonamide], the pIC50 at CDK4/CCND3 (setting [5]) is less than 6.60; at CDK6/CCND1 (setting [6]), less than 6.60; at CDK1/CCNB1 (setting [3]) it was less than 6.60; at CDK2/CCNE1 (setting [4]) it was more than 7.60.

With `Cc1c(-c2nccc3cnc(Nc4ccc(NS(=O)(=O)c5ccc(N6CCN(C)CC6)cc5)cc4)cc23)ccc2c1cnn2CC(C)(C)O` [Ex 785, N-(4-((5-(1-(2-hydroxy-2-methylpropyl)-4-methyl-1H-indazol-5-yl)-2,6-naphthyridin-3-yl)amino)phenyl)-4-(4-methylpiperazin-1-yl)benzenesulfonamide], the pIC50 is less than 6.60 on CDK4/CCND3 (setting [5]), less than 6.60 at CDK6/CCND1 (setting [6]), less than 6.60 at CDK1/CCNB1 (setting [3]) and more than 7.60 at CDK2/CCNE1 (setting [4]).

As for `Cc1c(-c2nccc3cnc(Nc4ccc(NS(=O)(=O)c5ccc(N6CCOCC6)cc5)cc4)cc23)ccc2c1cnn2CC(C)(C)O` [Ex 786, N-(4-((5-(1-(2-hydroxy-2-methylpropyl)-4-methyl-1H-indazol-5-yl)-2,6-naphthyridin-3-yl)amino)phenyl)-4-morpholinobenzenesulfonamide], the pIC50 on CDK4/CCND3 (setting [5]) was less than 6.60; at CDK6/CCND1 (setting [6]) it was less than 6.60; on CDK1/CCNB1 (setting [3]), less than 6.60; at CDK2/CCNE1 (setting [7]), 6.60 to 7.60.

`Cc1c(-c2nccc3cnc(Nc4ccc(NS(=O)(=O)c5ccccc5)cc4)cc23)ccc2c1cnn2CC(C)(C)O` [Ex 787, N-(4-((5-(1-(2-hydroxy-2-methylpropyl)-4-methyl-1H-indazol-5-yl)-2,6-naphthyridin-3-yl)amino)phenyl)benzenesulfonamide]: the pIC50 was less than 6.60 at CDK4/CCND3 (setting [5]), less than 6.60 on CDK6/CCND1 (setting [6]), less than 6.60 at CDK1/CCNB1 (setting [3]) and more than 7.60 at CDK2/CCNE1 (setting [4]).

Consider `Cc1c(-c2nccc3cnc(Nc4ccc(S(=O)(=O)NC5CCOCC5)cc4)cc23)ccc2c1cnn2CC(C)(C)O` [Ex 793, 4-((5-(1-(2-hydroxy-2-methylpropyl)-4-methyl-1H-indazol-5-yl)-2,6-naphthyridin-3-yl)amino)-N-(tetrahydro-2H-pyran-4-yl)benzenesulfonamide], for which the pIC50 on CDK4/CCND3 (setting [1]) is 6.60 to 7.60; on CDK6/CCND1 (setting [2]), 6.60 to 7.60; on CDK1/CCNB1 (setting [3]), less than 6.60; on CDK2/CCNE1 (setting [4]) it was more than 7.60.

For the compound `Cc1c(-c2nccc3cnc(Nc4ccc(S(=O)(=O)NC5CC5)cc4)cc23)ccc2c1cnn2CC(C)(C)O` [Ex 794, N-cyclopropyl-4-((5-(1-(2-hydroxy-2-methylpropyl)-4-methyl-1H-indazol-5-yl)-2,6-naphthyridin-3-yl)amino)benzenesulfonamide], the pIC50 at CDK4/CCND3 (setting [1]) was 6.60 to 7.60; at CDK6/CCND1 (setting [2]), 6.60 to 7.60; at CDK1/CCNB1 (setting [3]) it was less than 6.60; at CDK2/CCNE1 (setting [4]), more than 7.60.

In the case of `CCNS(=O)(=O)c1ccc(Nc2cc3c(-c4ccc5c(cnn5CC(C)(C)O)c4C)nccc3cn2)cc1` [Ex 795, N-ethyl-4-((5-(1-(2-hydroxy-2-methylpropyl)-4-methyl-1H-indazol-5-yl)-2,6-naphthyridin-3-yl)amino)benzenesulfonamide], the pIC50 on CDK4/CCND3 (setting [1]) was 6.60 to 7.60; on CDK6/CCND1 (setting [2]), 6.60 to 7.60; at CDK1/CCNB1 (setting [3]), less than 6.60; at CDK2/CCNE1 (setting [4]), more than 7.60.

On to `CNS(=O)(=O)c1ccc(Nc2cc3c(-c4ccc5c(cnn5CC(C)(C)O)c4C)nccc3cn2)cc1` [Ex 796, 4-((5-(1-(2-hydroxy-2-methylpropyl)-4-methyl-1H-indazol-5-yl)-2,6-naphthyridin-3-yl)amino)-N-methylbenzenesulfonamide], for which the pIC50 on CDK4/CCND3 (setting [1]) was 6.60 to 7.60; at CDK6/CCND1 (setting [2]) it was 6.60 to 7.60; at CDK1/CCNB1 (25-250 nM, read-out: CDK1/CCNB IC50, 25-250 nM), 6.60 to 7.60; at CDK2/CCNE1 (setting [4]), more than 7.60.

Turning to `Cc1c(-c2nccc3cnc(Nc4ccc(S(=O)(=O)Nc5ccncn5)cc4)cc23)ccc2c1cnn2CC(C)(C)O` [Ex 797, 4-((5-(1-(2-hydroxy-2-methylpropyl)-4-methyl-1H-indazol-5-yl)-2,6-naphthyridin-3-yl)amino)-N-(pyrimidin-4-yl)benzenesulfonamide], the pIC50 is less than 6.60 at CDK4/CCND3 (setting [5]), less than 6.60 on CDK6/CCND1 (setting [6]), less than 6.60 on CDK1/CCNB1 (setting [3]) and 6.60 to 7.60 on CDK2/CCNE1 (setting [7]).

The values above are taken from patent US20260325533A1, “CDK INHIBITOR COMPOUNDS” (ALEKSIA THERAPEUTICS, INC., priority 2023, published 2026).
